Data from patent US20060229265A1, “Nicotinamide riboside and analogues thereof” (priority 2005, published 2006).

Legend:
Swiss Albino mice = experiment: 7 day repeat dose tolerance study in mice; format: in vivo; details: 1000, 500 or 300 mg/kg in PBS, IP, 7 consecutive days; male mice
Procedure: Groups of male Swiss Albino mice (6 mice per dosing group) were dosed with either NMN dissolved in phosphate buffered saline (PBS) at 1000 mg/kg, 500 mg/kg, or 300 mg/kg or vehicle control (PBS) via intraperitoneal injection (IP) for 7 consecutive days. The evaluation criteria used to assess toxicity included daily clinical observations and weight gain.

[1] = Stability in rat plasma / on extraction with organic solvent (LC/MS); format: in vitro ADME
Procedure: Duplicate sets of standard curves of triacetoxy nicotinamide riboside, NMN and nicotinamide riboside in rat plasma were extracted by protein precipitation. Due to sensitivities of compounds to the organic solvent used in extraction, two separate extractions were performed on the standards. The standards were extracted with ACN to obtain triacetoxy nicotinamide riboside and nicotinamide riboside standards, and extracted with MeOH to obtain NMN standards. The standards were analyzed through LC/MS. Due to varying chromatographic properties of the compounds, two separate methods and columns were employed to resolve the compounds. The triacetoxy nicotinamide riboside standards (ACN extraction) were run on an YMC ODS-AQ 2.0×100 mm column, while the NMN standards (MeOH extraction) and nicotinamide riboside standards (ACN extraction) were run on an YMC ODS-AQ 4.5×150 mm column. The resolution procedures were as follows: • 50 uL aliquots of each sample were taken in replicates of four. • Added 200 uL of organic solvent to each sample. • Vortexed samples and centrifuged at 5000 g's for 10 minutes. • Transferred supernatant to new tubes (200 uL), and dried down in Speed-Vac. • Reconstituted samples in 200 uL 95:5 ddH2O:ACN, and vortexed 10 minutes on platform vortexer at setting 10. […] Though the curves may be quantitated separately, they cannot be quantitated together. […]

[2] = tested on: retinal ganglion cells (RGCs); experiment: Neuroprotection of retinal ganglion cells in EAE mice with acute optic neuritis (intravitreal treatment); details: for RGC numbers (FG-labeled cells in 12 standardized fields per retina): EAE eyes with optic neuritis; for Neuroprotection for RGCs during acute optic neuritis in EAE: dose-dependent manner
Procedure: Study outline: The neuroprotective effects of nicotinamide riboside were examined in EAE mice with optic neuritis. […] To induce EAE, mice were immunized several days later with 300 μg PLP emulsified in complete Freund's adjuvant (CFA), and control mice (without EAE) were mock-immunized with phosphate buffered saline (PBS) in CFA. All mice received 200 ng intraperitoneal pertussis toxin (PT) on the day of immunization (day 0) and again on day 2.
Eyes were treated with nicotinamide riboside by intravitreal (ivt) injections with a volume of 0.8 μl/injection of a stock solution of either 0.1 M or 0.4 M nicotinamide riboside in PBS (Groups 2, 4 and 5). […] Treament with nicotinamide riboside, as well as PBS control injections, were given ivt on days 0, 4, 7 and 11. Mice were scored daily for clinical EAE, and were sacrificed on day 14 by overdose with ketamine and xylazine.
Retinas were dissected and whole-mounted for fluorescent microscopy. RGC numbers were quantified by counting FG-labeled cells in 12 standardized fields in each retina. Optic nerves were dissected and processed for histology. Cut sections stained by H & E were evaluated for the presence of inflammatory cells to determine acute optic neuritis. RGCs were compared between PBS-treated and nicotinamide riboside-treated eyes with optic neuritis to determine whether nicotinamide riboside prevents loss of neurons.

Compound: NC(=O)c1ccc[n+]([C@@H]2O[C@H](COP(=O)([O-])O)[C@@H](O)[C@H]2O)c1 [NMN, nicotinamide mononucleotide]
- Clinical signs of toxicity (Swiss Albino mice): None of the animals showed clinical signs of toxicity
- Weight gain by study termination (Swiss Albino mice): All animals in the study gained weight

Compound: CC(=O)OCC1OC([n+]2cccc(C(N)=O)c2)C(OC(C)=O)C1OC(C)=O (stereo not shown) [Triacetoxy nicotinamide riboside, triacetoxy nicotinamide riboside]
- Hydrolysis on extraction from rat plasma ([1]; extracted with ACN, compared with MeOH): less strongly so
- Hydrolysis on extraction from rat plasma ([1]; extracted with MeOH): hydrolyzes into nicotinamide riboside

Compound: NC(=O)c1ccc[n+]([C@@H]2O[C@H](CO)[C@@H](O)[C@H]2O)c1 [nicotinamide riboside]
- RGC numbers (FG-labeled cells in 12 standardized fields per retina) ([2]; 100 mM nicotinamide riboside stock, 0.8 μl ivt on days 0, 4, 7, 11 (estimated ocular 19 mM), day 14, Group 4, PBS-treated 268±59, control 691±81): 505±36 RGCs
- RGC numbers (FG-labeled cells in 12 standardized fields per retina) ([2]; 400 mM nicotinamide riboside stock, 0.8 μl ivt on days 0, 4, 7, 11 (estimated ocular 76 mM), day 14, Group 5, p<0.01): 710±67 RGCs
- Incidence of optic neuritis, treated mice vs. controls ([2]; EAE mice, ivt treatment): did not differ
- Inflammatory cell infiltration (optic nerve) ([2]; EAE mice, ivt treatment): does not prevent
- Clinical EAE, treated mice vs. controls ([2]; EAE mice, ivt treatment, scored daily): did not differ
- Neuroprotection for RGCs during acute optic neuritis in EAE [2]: effective
- Neuroprotection for RGCs during acute optic neuritis in EAE ([2]; listed as Nicotinamide riboside): neuroprotective
- Toxicity to RGCs ([2]; mouse, in vivo): not toxic
- Difference in RGC numbers between control eyes and non-EAE eyes treated ([2]; non-EAE eyes, ivt treatment (Group 2) vs. untreated control (Group 1), day 14): no difference
